According to patent publication US4970205A, “Sulfonic acid substituted aromatic steroids as inhibitors of steroid 5-α-reductase” (SmithKline Beecham Corporation, priority 1988, dated 1990):
Like-named read-outs stand apart in the source and are kept apart here.

What was measured:
steroid 5-α-reductase = conditions: cited from earlier work; for Ki / reversibility of inhibition (with Ki): Table I; for time-dependence of 5-α-reductase inhibition: footnote text of Table I
[1] = molecular target: T1, human steroid 5-α-reductase (Homo sapiens, UniProt P31213); test: inhibition of human steroid 5-α-reductase using tissue from hyperplastic human prostates ([14C]-testosterone conversion, Dixon plot); type: biochemical; conditions: human prostatic particulate, pH 5.0, 37° C., 20 to 30 minutes; competitive against testosterone assumed
T1 construct: Frozen human prostates were thawed and minced into small pieces; from tissue; host or cells: hyperplastic human prostate, 140,000 x g particulate fraction
T1 sequence (P31213 1-254): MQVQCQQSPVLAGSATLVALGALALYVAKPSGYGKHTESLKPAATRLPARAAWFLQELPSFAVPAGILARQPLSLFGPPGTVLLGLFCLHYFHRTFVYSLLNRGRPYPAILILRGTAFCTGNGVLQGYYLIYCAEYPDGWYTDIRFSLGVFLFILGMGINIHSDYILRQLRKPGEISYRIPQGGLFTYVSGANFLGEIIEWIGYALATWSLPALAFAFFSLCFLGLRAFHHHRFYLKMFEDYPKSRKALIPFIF
Experimental: A compound of the invention, potassium 17b-(N,N-diisopropylcarboxamide)-estr-1,3,5(10)-triene-3-sulfonate, was tested for potency in inhibiting human steroid 5-α-reductase using tissue from hyperplastic human prostates. In determining potency in inhibiting the human enzyme, the following procedure was employed:
Frozen human prostates were thawed and minced into small pieces (5 mm^3). The tissue was homogenized in 3 to 5 volumes of 20 mM potassium phosphate buffer, pH 6.5, containing 0.33 M sucrose, 1 mM dithiothreitol, and […] with a Brinkmann Polytron (Sybron Corporation, Westbury, N.Y.). The solution was subjected to sonication for 3 to 5 minutes with a Sonifier (Branson Sonic Power Co.) followed by hand homogenization in a glass-to-glass Dounce homogenizer (Kontes Glass Company, Vineland, N.J.). […]
A constant amount of [^14 C]-testosterone (52 to 55 mCi/mmol, New England Nuclear, Boston, Mass.) in ethanol and varying amounts of the potential inhibitor in ethanol were deposited in test tubes and concentrated to dryness in a SAVANT Speed Vac. […] The radiochemical content in the bands of the substrate and the products was determined with a BIOSCAN Imaging Scanner (Bioscan, Inc., Washington, D.C.). The percent of recovered radiolabel converted to product was calculated, from which enzyme activity was determined. […]

Row | SMILES | Ki (steroid 5-α-reductase) | reversibility of inhibition (with Ki) (steroid 5-α-reductase) | time-dependence of 5-α-reductase inhibition (steroid 5-α-reductase) | Ki [1] | Ki (steroid 5-α-reductase; unit inferred)
1 | C=C1CC2C(CCC3(C)C2CCC3(OC(C)=O)C(C)=O)C2(C)CCC(=O)C=C12 (stereo not shown) [(5)] | 1.25 µM | Irreversible | time-dependent inactivator | – | –
2 | CC12CCC(=O)C=C1CCC1C2CCC2(C)C(C(=O)O)CCC12 (stereo not shown) [(1)] | 1.1 µM | Reversible | – | – | –
3 | CC(C)N(C(=O)[C@H]1CC[C@H]2[C@@H]3CCc4cc(S(=O)(=O)O)ccc4[C@H]3CC[C@]12C)C(C)C [Potassium 17β-(N,N-Diisopropylcarboxamide)-estr-1,3,5(10)-triene-3-sulfonate] | – | – | – | 0.01 µM | –
4 | CC(=O)C1CCC2C3CC=C=CC(=O)CCC(=O)C3CCC12C (stereo not shown) [(2)] | 1 µM | Irreversible | – | – | –
5 | CCN(CC)C(=O)C1CCC2C3CCC4N(C)C(=O)CCC4(C)C3CCC12C (stereo not shown) [(4)] | 0.005 µM | Reversible | – | – | –
6 | CC(CO)C1CCC2C3CCC4C(=[N+]=[N-])C(=O)CCC4(C)C3CCC12C (stereo not shown) [(3)] | – | Irreversible | potent, time-dependent | – | 0.035 µM
